Legend:
Type in all cases: physicochemical
[1] = Stability study under accelerated conditions: impurity profile / overall purity by HPLC; details: for overall purity (HPLC) after storage: 2 months; for overall purity (HPLC), initial: before storage
Protocol: (§1) Impurity profile, moisture content and crystalline form were measured on the samples, and then again approximately 3 months later for Sample 1, and 2 months later for Samples 2 and 3.
The impurity profile was measured by HPLC.

[2] = Stability study under accelerated conditions: moisture content by Karl Fischer analysis
Protocol: (§2) Three samples of Compound I were packaged separately in double polyethylene bags in a small cardboard box, which were stored in a stability chamber under accelerated conditions (40° C./75% […] Humidity). Sample 1 was 10 g of crystalline Form 1; Sample 2 was 2 g of amorphous product prepared as described in Example 1B above; and Sample 3 was 2 g of crystalline Form 2 made as described in Example 1A above.
as §1
Karl Fischer analysis was used to measure moisture content.

[3] = Stability study under accelerated conditions: crystalline form by differential scanning calorimetry; details: 3 months, 40° C./75% Residual Humidity
Protocol: as §2, §1

[4] = Solubility (general statement)
[5] = compared with crystalline form of Example 1S of WO 2004/000869 and amorphous form, general statement
[6] = 40° C./75% Residual Humidity, double polyethylene bags

SMILES | change of overall purity (HPLC) after storage ([1]; 3 months, 40° C./75% Residual Humidity, double polyethylene bags) | stability under accelerated conditions, overall conclusion ([1]; compared with Compound I in other forms) | stability [1, 5] | water uptake (Karl Fischer) after storage ([2]; 3 months, 40° C./75% Residual Humidity) | hygroscopicity [2, 5] | change in crystalline form (DSC thermograms) [3] | solubility [4] | overall purity (HPLC) after storage [1, 6] | overall purity (HPLC), initial [1] | water content (Karl Fischer) after storage ([2]; 2 months, 40° C./75% Residual Humidity) | moisture content, initial ([2]; before storage) | water uptake (Karl Fischer) after storage ([2]; 2 months, 40° C./75% Residual Humidity, relative to Samples 1 and 2)
CC#C[C@]1(O)CC[C@H]2[C@@H]3CCC4=CC(=O)CCC4=C3[C@@H](c3ccc(N(C)CCO[C@H]4CC[C@@]5(C)[C@@H](C4)C[C@@H](O)[C@@H]4[C@@H]5C[C@H](O)[C@]5(C)[C@@H]([C@H](C)CCC(=O)O)CC[C@@H]45)cc3)C[C@@]21C [Sample 1, (3β,5β,7α,12α)-7,12-dihydroxy-3-{2-[{4-[17β-hydroxy-3-oxo-17α-prop-1-ynylestra-4,9-dien-11β-yl]phenyl}(methyl)amino]ethoxy}cholan-24-oic acid] | did not change | more stable | improved stability | little water uptake | lower hygroscopicity | no change in crystalline form | low solubility | – | – | – | – | –
CC#C[C@]1(O)CC[C@H]2[C@@H]3CCC4=CC(=O)CCC4=C3[C@@H](c3ccc(N(C)CCO[C@H]4CC[C@@]5(C)[C@@H](C4)C[C@@H](O)[C@@H]4[C@@H]5C[C@H](O)[C@]5(C)[C@@H]([C@H](C)CCC(=O)O)CC[C@@H]45)cc3)C[C@@]21C [Sample 2, (3β,5β,7α,12α)-7,12-dihydroxy-3-{2-[{4-[17β-hydroxy-3-oxo-17α-prop-1-ynylestra-4,9-dien-11β-yl]phenyl}(methyl)amino]ethoxy}cholan-24-oic acid] | – | – | – | – | – | – | – | 96.7% | 97.3% | 5% | anhydrous | –
CC#C[C@]1(O)CC[C@H]2[C@@H]3CCC4=CC(=O)CCC4=C3[C@@H](c3ccc(N(C)CCO[C@H]4CC[C@@]5(C)[C@@H](C4)C[C@@H](O)[C@@H]4[C@@H]5C[C@H](O)[C@]5(C)[C@@H]([C@H](C)CCC(=O)O)CC[C@@H]45)cc3)C[C@@]21C [Sample 3, (3β,5β,7α,12α)-7,12-dihydroxy-3-{2-[{4-[17β-hydroxy-3-oxo-17α-prop-1-ynylestra-4,9-dien-11β-yl]phenyl}(methyl)amino]ethoxy}cholan-24-oic acid] | – | – | – | – | – | – | – | 90.7% | 93.2% | – | – | intermediate behaviour

— patent US8124129B2, “Crystalline form of the compound A-348441” (Karo Bio AB, priority 2005, dated 2012)
